# Test results as given in patent publication US11253501B2, “Secnidazole formulations and use in treating bacterial vaginosis” (LUPIN INC., priority 2015, dated 2022).
# What was measured:
# [1] = Plasma pharmacokinetics after a single oral dose in fasted healthy female subjects; assay type: in vivo, human; conditions: 2 gram secnidazole microgranule formulation (70% drug in core)
# [2] = Urine pharmacokinetics after a single oral dose in fasted healthy female subjects; assay type: in vivo, human; conditions: 2 gram secnidazole microgranule formulation (70% drug in core)
structure (smiles),measurement,setting,value
"Cc1ncc([N+](=O)[O-])n1CC(C)O (centres unmarked) [Secnidazole, 1-(2-hydroxypropyl)-2-methyl-5-nitromidazole]","λz, Mean (SD)",[1],0.0422 (0.007544) 1/h
same,"λz, Median",[1],0.04047 h⁻¹
same,"% FE, Geometric Mean (SD)",[2],14.991 (3.0081) %
same,"% FE, Mean (SD)",[2],15.300 (3.5549) %
same,"% FE, Median",[2],14.943%
same,"Ae0-168, Geometric Mean (SD)",[2],0.300 (0.0602) g
same,"Ae0-168, Mean (SD)",[2],0.306 (0.0711) g
same,"Ae0-168, Median",[2],0.299 g
